{
  "source": "patent US12145920B2",
  "about": "“Lanthionine c-like protein 2 ligands, cells prepared therewith, and therapies using same” (NImmune Biopharma, Inc., priority 2019, dated 2024)",
  "key": {"influenza A (H1N1)": {"test_system": "influenza A (H1N1)", "assay": "Mouse model of influenza A virus infection", "type": "in vivo, C57BL/6 mice", "experimental": "Mouse model. Eight- to ten-week old wild type C57BL/6 mice were anesthetized by isoflurane inhalation. Mice were infected with influenza A (H1N1) intranasally at a challenge titer of 350 pfu/mouse. Mice were treated daily with BT-63 at a dose of 20 mg/kg orally via gavage. Mice were weighed and scored daily over 12 days. Mice were euthanized at days 12 to measure immune responses by flow cytometry in the lungs.\nFlow Cytometry. Lungs will be chopped into small pieces and collected into RPMI/FBS/CaCl2 buffer containing collagenase (300 U/mL) and DNase (50 U/mL) for digestion. Tissues will be digested for 60 to 90 minutes under stirring at 37° C. Resultant cellular suspensions will be filtered through 100 μm strainers, centrifuged (300×g, 8 min), and washed in fresh RPMI. Red blood cells will be lysed by hypotonic lysis and removed by filtration. Cells will be washed and plated for flow cytometry staining. Cells will be labeled with mixtures of extracellular (CD45, CD3, CD4, CD8, CD19, NK1.1, CD25, F4/80, CD11b, CD11c, Gr1, CX3CR1, CD64, SiglecF, Ly6C) and intracellular (Tbet, RORγT, FOXP3, IFNγ, IL6, IL10, IFNb) antibodies in a sequential live staining in 96-well plates. Data will be acquired using a FACS Celesta flow cytometer with FACSDiva software."}, "MDR1a-/- mice": {"test_system": "MDR1a-/- mice", "assay": "MDR1a-/- chronic model of IBD", "type": "in vivo", "experimental": "MDR1a−/− model. Mice deficient in MDR1a spontaneously develop colitis. MDR1a−/− began receiving BT-63 treatment (oral, 20 mg/kg) at 6 weeks of age and continued treatment until 10 weeks of age. Mice were weighed and scored weekly. Treatment administration. BT-63 was prepared within a 0.5% methylcellulose (12-15 cP) solution. Dosage used was 20 mg/kg delivered once daily. Mice were weighed on a weekly basis to update dosage formulation. Dosage was calculated based off mean body weights for each gender. Oral dosage was delivered by orogastric gavage of dosage in 0.2 mL volume. Flow Cytometry. […]\ncollagenase (300U/mL) and DNase (50U/mL) for digestion. Tissues were digested for 60 minutes under stirring at 37° C. Resultant cellular suspensions were filtered through 100 μm strainers, centrifuged (300×g, 8 min), and washed in fresh RPMI. Following filtration of the resulting single cell suspensions, immune cells were purified by Percoll gradient of cell-containing 40% Percoll overlayed onto 70% Percoll solution. After centrifugation, interphase was collected and washed to obtain enriched colonic lamina propria cell fractions. Cells were labeled with mixtures of extracellular (CD45, CD3, CD4, CD8, CD19, NK1.1, CD25, F4/80, CD11b, Gr1, CX3CR1, CD64) and intracellular (Tbet, RORyT, FOXP3, IFNγ, IL17, IL10) antibodies in a sequential live staining in 96-well plates. Data was acquired using a FACS Celesta flow cytometer with FACSDiva software."}, "[1]": {"details": "lung, day 12 post-infection, 20 mg/kg"}, "[2]": {"details": "lungs, day 12 post-infection, 20 mg/kg"}, "[3]": {"details": "colonic lamina propria, four weeks oral 20 mg/kg"}, "[4]": {"details": "spleen, four weeks oral 20 mg/kg"}},
  "data": [
    {"molecule": "O=C(CN1CCN(C(=O)c2cccc(-c3nc4ccccc4[nH]3)n2)CC1)c1ccccc1", "note": "[BT-63, 2-(4-(6-(1H-benzo[d]imidazol-2-yl)picolinoyl)piperazin-1-yl)-1-phenylethanone]", "values": [
      {"measurement": "increase in survival compared to vehicle", "setting": "influenza A (H1N1); 12 days post-infection, 20 mg/kg oral daily", "value": "over 50%"},
      {"measurement": "disease activity index", "setting": "influenza A (H1N1); day 3 through day 12 post-infection, 20 mg/kg oral vs vehicle", "value": "significantly reduces"},
      {"measurement": "IL10+ CD8+ T cells", "setting": "influenza A (H1N1); [1]", "value": "increases"},
      {"measurement": "alveolar macrophages", "setting": "influenza A (H1N1); [1]", "value": "increases"},
      {"measurement": "proportions of TNFa+ CD4+ T cells", "setting": "influenza A (H1N1); [2]", "value": "decreased"},
      {"measurement": "proportions of neutrophils", "setting": "influenza A (H1N1); [2]", "value": "decreased"},
      {"measurement": "proportions of regulatory CD4+ CD25+ T cells", "setting": "MDR1a-/- mice; colon, four weeks oral 20 mg/kg", "value": "increased"},
      {"measurement": "proportions of Th1", "setting": "MDR1a-/- mice; [3]", "value": "reduces"},
      {"measurement": "proportions of Th17", "setting": "MDR1a-/- mice; [3]", "value": "reduces"},
      {"measurement": "proportions of neutrophils", "setting": "MDR1a-/- mice; [3]", "value": "reduces"},
      {"measurement": "splenic CD25+ Tregs", "setting": "MDR1a-/- mice; [4]", "value": "increased"},
      {"measurement": "splenic Th1 cells", "setting": "MDR1a-/- mice; [4]", "value": "decreased"},
      {"measurement": "maximal observed reduction of disease activity", "setting": "MDR1a-/- mice; week four of treatment, oral 20 mg/kg", "value": 90, "unit": "%"}
    ]}
  ]
}
